Source: the NIST ThermoML archive (doi:10.1016/j.jct.2016.09.022)

Legend:
[1] = Liquid; for speed of sound: Frequency=1.5 MHz, Single path-length method; for mass density: 298.15 K, 101.33 kPa, Vibrating tube method
[2] = refractive index (Na D-line) (dimensionless); conditions: 298.15 K; 101.33 kPa; Liquid; Standard Abbe refractometry

CCCCCC [hexane]
speed of sound [m/s], [1]
Conditions	283.15 K	293.15 K	303.15 K	313.15 K	323.15 K	333.15 K	343.15 K
100 kPa	1147.3	1102.8	1056.2	1011.6	966.77	923.14	–
105 kPa	–	–	–	–	–	–	877.65
5100 kPa	1183.8	1141.9	1097.9	1055.9	1013.6	972.45	931.79
10100 kPa	1218.6	1177.2	1135.8	1096.4	1056.7	1017.2	977.66
20100 kPa	1283.2	1243.4	1204.4	1167.8	1131.8	1096.3	1060.6
30100 kPa	1339.6	1302.4	1266.5	1231.8	1197.6	1164	1131.3
40100 kPa	1391.9	1356	1321.9	1289.3	1256.9	1225.4	1194.6
50100 kPa	1440.2	1405.9	1373.7	1341.4	1311	1280.6	1252.1
60100 kPa	1484.8	1452.3	1421.1	1390.3	1361.3	1331.7	1304.4
70100 kPa	1526.9	1495.6	1464.4	1435.6	1408.2	1380.5	1354.1
80100 kPa	1566.5	1536.7	1508.3	1478.3	1451.5	1425.6	1400.1
90100 kPa	1604.6	1575.4	1548	1519.6	1493	1467.5	1442.2
95100 kPa	1622.6	1594.1	1567.1	1539.5	1512.6	1487.5	1463.4

Conditions	mass density [kg/m3]	refractive index
[1]	654.9	–
[2]	–	1.3723

CO [methanol]
speed of sound [m/s], [1]
Conditions	283.15 K	293.15 K	303.15 K	313.15 K	323.15 K	333.15 K	343.15 K
100 kPa	1154.3	1120.6	1087.4	1054.5	1022	989.77	–
120 kPa	–	–	–	–	–	–	957.61
5100 kPa	1182	1149.2	1118	1087	1055.8	1025.2	994.42
10100 kPa	1209.3	1176.2	1146.4	1116.8	1087.2	1058	1028.6
20100 kPa	1258.7	1227.4	1199.4	1171.1	1143.8	1117.2	1090.6
30100 kPa	1303.6	1274.2	1248.1	1221.5	1195.3	1169.8	1144.9
40100 kPa	1345.2	1316.8	1292.5	1267.3	1242.7	1218.6	1194.9
50100 kPa	1384.4	1357	1333.7	1309.7	1286.3	1263.6	1241
60100 kPa	1421	1394.9	1372.8	1349.4	1326.6	1304.8	1283.5
70100 kPa	1456.2	1430.8	1409.7	1387.1	1365	1343.6	1323.1
80100 kPa	1489.1	1464.7	1444.6	1422.7	1401.3	1380.8	1361.1
90100 kPa	1520.7	1496.7	1477.7	1456.3	1435.9	1415.9	1396.8
95100 kPa	1536	1512.3	1493.8	1472.6	1452.3	1432.7	1414

Conditions	mass density [kg/m3]	refractive index
[1]	786.5	–
[2]	–	1.3263

CCCO [propan-1-ol]
speed of sound [m/s], [1]
Conditions	283.15 K	293.15 K	303.15 K	313.15 K	323.15 K	333.15 K	343.15 K
100 kPa	1260.3	1223.5	1189.2	1155.3	1121.7	1088.3	1054.4
5100 kPa	1287.8	1252.2	1219.6	1186.7	1153.8	1122.2	1090.2
10100 kPa	1313.7	1279.6	1248.2	1216.4	1184.6	1153.7	1123.4
20100 kPa	1362.3	1330	1300.9	1271.4	1241.7	1212.8	1183.9
30100 kPa	1407.9	1377	1349.1	1320.6	1293	1265.9	1239.2
40100 kPa	1450.3	1420.8	1394.3	1366.8	1340.2	1314.2	1289.2
50100 kPa	1490.2	1461.7	1436.6	1410.1	1384.6	1359.7	1335.5
60100 kPa	1527.4	1500.3	1476.2	1450.6	1426.4	1402.2	1379
70100 kPa	1563.2	1537.2	1513.7	1489.5	1465.1	1441.9	1419.9
80100 kPa	1597.2	1572.1	1549.5	1525.9	1502.3	1479.3	1458.2
90100 kPa	1630	1605.3	1583.6	1560.4	1537.5	1515.2	1497.2
95100 kPa	1645.7	1621.6	1600.1	1577.2	1554.4	1532.6	1512.2

Conditions	mass density [kg/m3]	refractive index
[1]	799.5	–
[2]	–	1.383

O [water]
speed of sound [m/s], [1]
Conditions	283.15 K	293.15 K	303.15 K	313.15 K	323.15 K	333.15 K	343.15 K
100 kPa	1447.3	–	–	1528.9	–	1551	1554.8
5100 kPa	1455.9	1490.5	1517.5	1537.6	1551.5	1560.1	1565
10100 kPa	1463.8	1498.9	1525.9	1546.1	1560.2	1569.2	1574.4
20100 kPa	1479.9	1515.3	–	1563.2	1577.7	1587.1	1592.8
30100 kPa	1496.2	1531.9	1559.5	1580.3	1595	1604.8	1610.8
40100 kPa	1513.4	1548.6	1576.3	1597.1	1612.2	1622.2	1628.6
50100 kPa	–	1565.3	1593.1	1613.8	1629	1639.3	1646.1
60100 kPa	1548	1582.2	1609.8	1630.4	1645.7	1656.3	1663.9
70100 kPa	1565.4	1599.1	1626.3	1646.9	1662.3	1673.1	1681
80100 kPa	1582.7	1615.8	1642.6	1663.3	1678.3	1689.6	1697.4
90100 kPa	1600.1	1632.4	1659	1679.4	1694.9	1705.9	1714.2
95100 kPa	1608.7	1640.7	1667.3	1687.5	1702.9	1714	1723

Conditions	refractive index
[2]	1.3326
